The values that follow come from publication PMC4791539, “Crystal structure of Anoxybacillus α-amylase provides insights into maltose binding of a new glycosyl hydrolase subclass” (Scientific Reports, 2016).

The assay has as its target T1, TASKA (truncated ASKA) (Anoxybacillus ayderensis, UniProt I1VWH9).
T1 construct: signal peptide (1-23) and predicted C-terminal transmembrane region (479-505) removed; 6xHis tags at N- and C-termini (pET-28a); E. coli BL21(DE3); monomer in asymmetric unit
T1 sequence (I1VWH9 24-478): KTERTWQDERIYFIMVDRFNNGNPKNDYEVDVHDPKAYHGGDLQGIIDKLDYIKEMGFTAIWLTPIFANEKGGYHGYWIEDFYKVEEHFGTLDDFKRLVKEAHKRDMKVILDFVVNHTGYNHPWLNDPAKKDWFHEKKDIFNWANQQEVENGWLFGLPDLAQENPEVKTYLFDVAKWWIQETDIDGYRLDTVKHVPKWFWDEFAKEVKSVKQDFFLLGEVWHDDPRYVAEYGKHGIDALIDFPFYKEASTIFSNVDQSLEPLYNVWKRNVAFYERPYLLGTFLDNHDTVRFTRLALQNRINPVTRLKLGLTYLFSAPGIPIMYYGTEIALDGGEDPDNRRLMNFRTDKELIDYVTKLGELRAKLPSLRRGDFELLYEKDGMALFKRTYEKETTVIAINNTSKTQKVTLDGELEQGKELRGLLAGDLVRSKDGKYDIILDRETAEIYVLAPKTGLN
As to the kind of experiment: UPLC-ELSD product analysis. The class given is biochemical. The conditions noted are these: hydrolysed to glucose and maltose; co-crystal (TASKA-T) shows only maltose.

Consider `OC[C@H]1O[C@H](O[C@H]2[C@H](O)[C@@H](O)[C@@H](O[C@H]3[C@H](O)[C@@H](O)C(O)O[C@@H]3CO)O[C@@H]2CO)[C@H](O)[C@@H](O)[C@@H]1O` (stereo partly shown) [maltotriose], for which the UPLC-ELSD product analysis result was “glucose and maltose were produced following the hydrolysis of maltotriose”.
